# Results from patent US20240317686A1, “RORyT MODULATOR, AND PREPARATION METHOD THEREFOR AND APPLICATION THEREOF” (SHANGHAI PHARMACEUTICALS HOLDING CO., LTD., priority 2020, published 2024).
# Molecular target: T1, RORγt (Homo sapiens, UniProt P51449)
# T1 construct: Prepare 4×RORgt-LBD in 1× buffer
# T1 sequence (P51449 269-508 limits assumed): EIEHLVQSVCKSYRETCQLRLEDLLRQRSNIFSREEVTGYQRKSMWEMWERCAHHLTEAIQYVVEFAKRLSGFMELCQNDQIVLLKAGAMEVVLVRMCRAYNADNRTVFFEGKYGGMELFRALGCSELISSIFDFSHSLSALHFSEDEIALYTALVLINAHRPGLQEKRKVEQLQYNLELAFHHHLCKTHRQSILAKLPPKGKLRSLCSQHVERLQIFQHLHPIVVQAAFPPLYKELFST
# Test: Fluorescence resonance energy transfer (FRET) assay of inhibitory activity on RORγt
# Type: biochemical
# Conditions: RORgt-LBD GST with SRC peptide
# Description: Fluorescence resonance energy transfer (FRET) experiment was performed to assay the inhibitory activity of the compound of the present invention on RORγt.
# 1) Preparation of DMSO stock solutions of the compounds: All compounds were dissolved in DMSO to prepare 10 mM stock solutions.
# 2) Compound storage: After the compound was dissolved in DMSO, the solution can be stored in a desiccator at room temperature for three months. For long-term storage, the solution should be put in a −20° C. refrigerator.
# 3) Preparation of working solution: • a) Positive control compound AZD0284: Starting from 500 µM, the solution was diluted serially by 3-folds with DMSO to obtain a 10-concentration gradient, each concentration with 3 replicate wells. 2 wells were pipetted. The gradiently diluted compound was diluted in a reaction buffer to obtain a 4× working solution (starting from 40 μM, diluted gradiently by 3-folds) of the positive control compound. • b) Compounds to be tested: Starting from 500 μM, the solution was diluted serially by 3-folds with DMSO to obtain a 10-concentration gradient, each concentration with 3 replicate wells. 2 wells were pipetted. The gradiently diluted compound was diluted in a reaction buffer to obtain a 4× working solution ([…], diluted gradiently by 3-folds) of the compounds to be tested. • c) Prepare a 4× negative control (8% DMSO). • d) Centrifuge the plate at 1000 rpm for 1 min.
# 1) Prepare 4× serially diluted compounds in 1× buffer.
# 2) Add 5 μl of the 4× serially diluted compound (prepared in step 1) to a 384 assay plate (784075, Greiner).
# 3) Prepare 4×RORgt-LBD in 1× buffer.
# 4) Add 5 μl of the 4×RORgt-LBD (prepared in step 3) to the 384 assay plate (prepared in step 2).
# 5) Incubate the assay plate for 15 min at room temperature, protected from light.
# 6) Prepare a 2× mixture of SRC, anti-GST Eu and streptavidin-d2 in 1× […].
# 7) Add 10 μl of the 2× mixture (prepared in step 6) to the 384 assay plate (prepared in step 4).
# 8) Centrifuge the 384 assay plates at 1000 g for 1 min.
# 9) Incubate for 3 h at room temperature, protected from light.
# 10) Read the plate at wavelengths of 665 nm and 615 nm on an Envision 2104 plate reader.
# Relative ratio (RR): Calculate the relative ratio (response value at 665 nm/response value at 615 nm-response value in blank background) of each well.
# Inhibition rate %=[1−(fluorescence detection value of the compound−fluorescence detection average of the positive compound)/(fluorescence detection average of the negative control−fluorescence detection average of the positive compound)]×100
# Calculate the IC50 and dose-response curve of the compound: The IC50 and dose-response curve of the compound were obtained via Graphpad 8.0 by calculating the inhibition rate of the compound and the log value of the compound concentration.
row,IC50 [nM],Compound
1,> 1000,CCS(=O)(=O)c1ccc(CC(=O)Nc2ccc(C(=O)C(C)(C)n3ccc(C)n3)nc2)cc1 [Compound I-38]
2,> 1000,"CCS(=O)(=O)c1ccc(CC(=O)Nc2ccc(C(=O)C(F)(F)c3ccc(Cl)cc3)nc2)cc1 [Compound I-39, N-(6-(2-(4-chlorophenyl)-2,2-difluoroacetyl)pyridin-3-yl)-2-(4-(ethylsulfonyl)phenyl)acetamide]"
3,1 to 10,"CCS(=O)(=O)c1ccc(CC(=O)Nc2ccc(C(=O)C(C)(C)c3cc(C#N)ccn3)nc2)cc1 [Compound I-40, N-(6-(2-(4-cyanopyridin-2-yl)-2-methylpropionyl)pyridin-3-yl)-2-(4-(ethylsulfonyl)phenyl)acetamide]"
4,1 to 10,"CCS(=O)(=O)c1ccc(CC(=O)Nc2ccc(C(=O)C(C)(C)c3ncc(F)cc3F)nc2)cc1 [Compound I-41, N-[6-[2-(3,5-difluoro-2-pyridyl)-2-methyl-propionyl]-3-pyridyl]-2-(4-ethylsulfonylphenyl)acetamide]"
5,10 to 50,"CCn1cc(C(C)(C)C(=O)c2ccc(NC(=O)Cc3ccc(S(=O)(=O)CC)cc3)cn2)cn1 [Compound I-42, N-(6-(2-(1-ethyl-1H-pyrazol-4-yl)-2-methylpropionyl)pyridin-3-yl)-2-(4-(ethylsulfonyl)phenyl) acetamide]"
6,10 to 50,"[2H]C([2H])([2H])n1cc(C(C)(C)C(=O)c2ccc(NC(=O)Cc3ccc(S(=O)(=O)CC)cc3)cn2)cn1 [Compound I-43, 2-(4-(ethylsulfonyl)phenyl)-N-(6-(2-methyl-2-(1-(methyl-D3)-1H-pyrazol-4-yl)propionyl)pyridin-3-yl)acetamide]"
7,1 to 10,"CCS(=O)(=O)c1ccc(CC(=O)Nc2ccc(C(=O)C(C)(C)c3ncccc3F)nc2)cc1 [Compound I-44, 2-(4-(ethylsulfonyl)phenyl)-N-(6-(2-(3-fluoropyridin-2-yl)-2-methylpropionyl)pyridin-3-yl)acetamide]"
8,100 to 1000,"CCS(=O)(=O)c1ccc(CC(=O)Nc2ccc(C(=O)C3(c4ccccn4)CC3)nc2)cc1 [Compound I-45, 2-(4-(ethylsulfonyl)phenyl)-N-(6-(1-(pyridin-2-yl)cyclopropane-1-carbonyl)pyridin-3-yl)acetamide]"
9,10 to 50,"CCS(=O)(=O)c1ccc(CC(=O)Nc2ccc(C(=O)C3(c4ccccn4)CCC3)nc2)cc1 [Compound I-46, 2-(4-(ethylsulfonyl)phenyl)-N-(6-(1-(pyridin-2-yl)cyclobutane-1-carbonyl)pyridin-3-yl)acetamide]"
10,1 to 10,CNS(=O)(=O)c1ccc(CC(=O)Nc2ccc(C(=O)C(C)(C)c3ccc(F)c(Cl)c3)nc2)cc1 [Compound I-47]
11,50 to 100,"CCS(=O)(=O)c1ccc(CC(=O)Nc2ccc(C(=O)C(C)(C)c3ccc(C)nc3)nc2)cc1 [Compound I-48, 2-(4-(ethylsulfonyl)phenyl)-N-(6-(2-methyl-2-(6-methylpyridin-3-yl)propionyl)pyridin-3-yl)acetamide]"
12,50 to 100,CCS(=O)(=O)c1ccc(CC(=O)Nc2ccc(C(=O)C(C)(C)c3ccc(C(F)(F)F)nc3)nc2)cc1 [Compound I-50]
13,1 to 10,CCS(=O)(=O)c1ccc(CC(=O)Nc2ccc(C(=O)C(C)(C)c3ccnc(C(F)(F)F)c3)nc2)cc1 [Compound I-52]
14,1 to 10,"CCS(=O)(=O)c1ccc(CC(=O)Nc2ccc(C(=O)C3(c4ccccn4)CC(F)(F)C3)nc2)cc1 [Compound I-54, N-(6-(3,3-difluoro-1-(pyridin-2-yl)cyclobutane-1-carbonyl)pyridin-3-yl)-2-(4-(ethylsulfonyl)phenyl)acetamide]"
15,100 to 1000,CCS(=O)(=O)c1ccc(CC(=O)Nc2ccc(C(=O)C(C)(C)c3cnc(C)nc3)nc2)cc1 [Compound I-55]
16,10 to 50,"CCS(=O)(=O)c1ccc(CC(=O)Nc2ccc(C(=O)C(C)(C)c3nc(C)c(C)o3)nc2)cc1 [Compound I-56, N-(6-(2-(4,5-dimethyloxazol-2-yl)-2-methylpropionyl)pyridin-3-yl)-2-(4-(ethylsulfonyl)phenyl) acetamide]"
17,1 to 10,CCS(=O)(=O)c1ccc(CC(=O)Nc2ccc(C(=O)C(C)(C)c3cccc(C)n3)nc2)cc1 [Compound I-57]
